Target: IDH2 R140Q (Homo sapiens (Human), UniProt P48735, R140Q)
Test: IDH2 R140Q enzymatic cofactor depletion assay (diaphorase/resazurin)
Format: biochemical
Details: IDH2 R140Q enzyme, one hour preincubation with compound, one hour reaction; read-out: Enz R140Q
Procedure: The reaction was terminated by the addition of a second enzyme, diaphorase, and a corresponding substrate, resazurin. Diaphorase reduces resazurin to the highly fluorescent resorufin with the concomitant oxidation of NADPH to NADP, both halting the IDH2 reaction by depleting the available cofactor pool and facilitating quantitation of the amount of cofactor remaining after a specific time period through quantitative production of an easily detected fluorophore.
The compound was then incubated for one hour at room temperature with the enzyme; before starting the IDH2 reaction with the addition of 10 μl of substrate mix containing 50 μM NADPH and 6.3 mM α-KG in the buffer described above. After a further one hour of incubation at room temperature, the reaction was halted and the remaining NADPH measured through conversion of resazurin to resorufin by the addition of 25 μl Stop Mix (36 μg/ml diaphorase enzyme and 60 μM resazurin; in buffer). After one minute of incubation the plate was read on a plate reader at Ex544/Em590.

Sequence of IDH2 R140Q (P48735 40-452 R140Q): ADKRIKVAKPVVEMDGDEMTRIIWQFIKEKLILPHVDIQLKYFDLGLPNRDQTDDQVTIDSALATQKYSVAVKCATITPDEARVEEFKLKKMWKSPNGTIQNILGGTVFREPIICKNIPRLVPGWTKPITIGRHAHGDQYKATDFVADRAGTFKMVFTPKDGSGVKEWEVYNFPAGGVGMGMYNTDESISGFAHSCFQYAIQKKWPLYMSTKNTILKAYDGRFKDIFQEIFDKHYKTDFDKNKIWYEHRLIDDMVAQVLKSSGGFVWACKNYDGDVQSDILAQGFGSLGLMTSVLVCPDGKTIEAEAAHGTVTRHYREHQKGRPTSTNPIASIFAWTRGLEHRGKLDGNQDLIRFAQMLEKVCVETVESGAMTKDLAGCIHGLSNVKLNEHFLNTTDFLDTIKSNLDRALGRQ

SMILES	IC50
O=C(Nc1cccc(C(F)(F)F)c1)Nc1cc(S(=O)(=O)Nc2cccnc2)ccc1-c1ccsc1 [Compound 150]	1000 to 10000 nM
O=C(Nc1cc(Cl)ccn1)Nc1cc(S(=O)(=O)NCC(F)(F)F)ccc1-c1ccccc1 [Compound 82, 2-(3-(4-chloropyridin-2-yl)ureido)-N-(2,2,2-trifluoroethyl)-[1,1′-biphenyl]-4-sulfonamide]	100 to 1000 nM
CCCCNS(=O)(=O)c1ccc(-c2ccsc2)c(NC(=O)Nc2cccc(C(F)(F)F)c2)c1 [Compound 114, N-butyl-4-(thiophen-3-yl)-3-(3-(3-(trifluoromethyl)phenyl)ureido)benzenesulfonamide]	100 to 1000 nM
C[C@H](NS(=O)(=O)c1ccc(-c2ccsc2)c(NC(=O)Nc2cccc(C(F)(F)F)c2)c1)c1ccccc1 [Compound 145]	1000 to 10000 nM
CC(=O)Nc1cccc(-c2ccc(S(=O)(=O)Nc3ccccc3)cc2NC(=O)Nc2cccc(C(F)(F)F)c2)c1 [Compound 110]	1000 to 10000 nM
O=C(Nc1ccc(F)cc1)Nc1cc(S(=O)(=O)Nc2ccccc2)ccc1-c1ccsc1 [Compound 18]	1000 to 10000 nM
Cc1nc(NC(=O)Nc2cc(S(=O)(=O)NCC(F)(F)F)ccc2-c2ccccc2)sc1Cl [Compound 101, 2-(3-(5-chloro-4-methylthiazol-2-yl)ureido)-N-(2,2,2-trifluoroethyl)-[1,1′-biphenyl]-4-sulfonamide]	100 to 1000 nM
O=C(Nc1ccccc1OC(F)(F)F)Nc1cc(S(=O)(=O)NCC(F)(F)F)ccc1-c1ccccc1 [Compound 43, N-(2,2,2-trifluoroethyl)-2-(3-(2-(trifluoromethoxy)phenyl)ureido)-[1,1′-biphenyl]-4-sulfonamide]	100 to 1000 nM
O=C(Nc1cccc(C(F)(F)F)c1)Nc1cc(S(=O)(=O)NCC(F)(F)F)ccc1OC1CCOCC1 [Compound 178, 4-((tetrahydro-2H-pyran-4-yl)oxy)-N-(2,2,2-trifluoroethyl)-3-(3-(3-(trifluoromethyl)phenyl)ureido)benzenesulfonamide]	100 to 1000 nM
O=C(Nc1cccc(C(F)(F)F)c1)Nc1cc(S(=O)(=O)NCC(F)(F)F)cnc1N1CCOCC1 [Compound 203, 6-morpholino-N-(2,2,2-trifluoroethyl)-5-(3-(3-(trifluoromethyl)phenyl)ureido)pyridine-3-sulfonamide]	100 to 1000 nM
O=C(Nc1cccc(C(F)(F)F)c1)Nc1cc(S(=O)(=O)Nc2ccccc2)ccc1-n1ccnc1 [Compound 354]	100 to 1000 nM
O=C(Nc1cccc(C(F)(F)F)c1)Nc1cc(S(=O)(=O)Nc2ccccn2)ccc1-c1ccsc1 [Compound 149]	1000 to 10000 nM
CC1CC1NS(=O)(=O)c1ccc(-c2ccsc2)c(NC(=O)Nc2cccc(C(F)(F)F)c2)c1 (centres unmarked) [Compound 152, N-(2-methylcyclopropyl)-4-(thiophen-3-yl)-3-(3-(3-(trifluoromethyl)phenyl)ureido)benzenesulfonamide]	100 to 1000 nM
O=C(Nc1ccc(F)c(Cl)c1)Nc1cc(S(=O)(=O)NCC(F)(F)F)ccc1-c1cccnc1 [Compound 55]	1000 to 10000 nM
O=C(Nc1cccc(O)c1)Nc1cc(S(=O)(=O)NCC(F)(F)F)ccc1-c1ccccc1 [Compound 81, 2-(3-(3-hydroxyphenyl)ureido)-N-(2,2,2-trifluoroethyl)-[1,1′-biphenyl]-4-sulfonamide]	100 to 1000 nM
O=C(Nc1cccc(C(F)(F)F)c1)Nc1cc(S(=O)(=O)NCC(F)(F)F)cnc1OCC1CC1 [Compound 197, 6-(cyclopropylmethoxy)-N-(2,2,2-trifluoroethyl)-5-(3-(3-(trifluoromethyl)phenyl)ureido)pyridine-3-sulfonamide]	< 100 nM
O=C(Nc1cccc(C(F)(F)F)c1)Nc1cc(S(=O)(=O)NC2COC2)ccc1OCC1CC1 [Compound 183, 4-(cyclopropylmethoxy)-N-(oxetan-3-yl)-3-(3-(3-(trifluoromethyl)phenyl)ureido)benzenesulfonamide]	100 to 1000 nM
O=C(Nc1cccc(CO)c1)Nc1cc(S(=O)(=O)NCC(F)(F)F)ccc1-c1ccccc1 [Compound 80, 2-(3-(3-(hydroxymethyl)phenyl)ureido)-N-(2,2,2-trifluoroethyl)-[1,1′-biphenyl]-4-sulfonamide]	100 to 1000 nM
O=C(Nc1cccc(C(F)(F)F)c1)Nc1cc(S(=O)(=O)Nc2cccc(C(F)(F)F)c2)ccc1-c1ccsc1 [Compound 147]	1000 to 10000 nM
CC(C)NS(=O)(=O)c1ccc(-c2ccsc2)c(NC(=O)Nc2cccc(C(F)(F)F)c2)c1 [Compound 115, N-isopropyl-4-(thiophen-3-yl)-3-(3-(3-(trifluoromethyl)phenyl)ureido)benzenesulfonamide]	100 to 1000 nM
O=C(Nc1cc(S(=O)(=O)NCC(F)(F)F)ccc1-c1ccccc1)Nc1ncccc1F [Compound 99, 2-(3-(3-fluoropyridin-2-yl)ureido)-N-(2,2,2-trifluoroethyl)-[1,1′-biphenyl]-4-sulfonamide]	1000 to 10000 nM

SMILES	IC50
O=C(Nc1cccc(C(F)(F)F)c1)Nc1cc(S(=O)(=O)NC2CCOCC2)ccc1-c1ccsc1 [Compound 132, N-(tetrahydro-2H-pyran-4-yl)-4-(thiophen-3-yl)-3-(3-(3-(trifluoromethyl)phenyl)ureido)benzene sulfonamide]	100 to 1000 nM
O=C(Nc1cncc(C(F)(F)F)c1)Nc1cc(S(=O)(=O)NCC(F)(F)F)ccc1-c1ccccc1 [Compound 94, N-(2,2,2-trifluoroethyl)-2-(3-(5-(trifluoromethyl)pyridin-3-yl)ureido)-[1,1′-biphenyl]-4-sulfonamide]	100 to 1000 nM
CCc1ccc(S(=O)(=O)NCC(F)(F)F)cc1NC(=O)Nc1cccc(C(F)(F)F)c1 [Compound 339, 4-ethyl-N-(2,2,2-trifluoroethyl)-3-(3-(3-(trifluoromethyl)phenyl)ureido)benzenesulfonamide]	100 to 1000 nM
C=CCNS(=O)(=O)c1ccc(-c2ccsc2)c(NC(=O)Nc2cccc(C(F)(F)F)c2)c1 [Compound 119, N-allyl-4-(thiophen-3-yl)-3-(3-(3-(trifluoromethyl)phenyl)ureido)benzenesulfonamide]	100 to 1000 nM
O=C(Nc1cccc(C(F)(F)F)c1)Nc1cc(S(=O)(=O)NCC2CCCC2)ccc1-c1ccsc1 [Compound 129, N-(cyclopentylmethyl)-4-(thiophen-3-yl)-3-(3-(3-(trifluoromethyl)phenyl)ureido)benzenesulfonamide]	100 to 1000 nM
O=C(Nc1cc(S(=O)(=O)NCC(F)(F)F)ccc1-c1ccccc1)Nc1c(F)cccc1F [Compound 41, 2-(3-(2,6-difluorophenyl)ureido)-N-(2,2,2-trifluoroethyl)-[1,1′-biphenyl]-4-sulfonamide]	100 to 1000 nM
O=C(Nc1cc(S(=O)(=O)NCC(F)(F)F)ccc1-c1ccccc1)NC1CCCC1 [Compound 54]	1000 to 10000 nM
CCOc1ncc(S(=O)(=O)NC2COC2)cc1NC(=O)Nc1cccc(C(F)(F)F)c1 [Compound 199, 6-ethoxy-N-(oxetan-3-yl)-5-(3-(3-(trifluoromethyl)phenyl)ureido)pyridine-3-sulfonamide]	100 to 1000 nM
O=C(Nc1ccc(F)c(Cl)c1)Nc1cc(S(=O)(=O)NC2CC2)ccc1-c1ccccc1 [Compound 52]	1000 to 10000 nM
O=C(Nc1cncc(F)c1)Nc1cc(S(=O)(=O)NCC(F)(F)F)ccc1-c1ccccc1 [Compound 98, 2-(3-(5-fluoropyridin-3-yl)ureido)-N-(2,2,2-trifluoroethyl)-[1,1′-biphenyl]-4-sulfonamide]	100 to 1000 nM
O=C(Nc1cccc(C(F)(F)F)c1)Nc1cc(S(=O)(=O)Nc2ccccc2)ccc1-c1cccc(Cl)c1 [Compound 57]	1000 to 10000 nM
CCOc1ccc(S(=O)(=O)NCC(F)(F)F)cc1NC(=O)Nc1ncc(Cl)s1 [Compound 191, 3-(3-(5-chlorothiazol-2-yl)ureido)-4-ethoxy-N-(2,2,2-trifluoroethyl)benzenesulfonamide]	100 to 1000 nM
O=C(Nc1ccc(F)cc1F)Nc1cc(S(=O)(=O)NCC(F)(F)F)ccc1-c1ccccc1 [Compound 68, 2-(3-(2,4-difluorophenyl)ureido)-N-(2,2,2-trifluoroethyl)-[1,1′-biphenyl]-4-sulfonamide]	100 to 1000 nM
O=C(Nc1nccc(C(F)(F)F)n1)Nc1cc(S(=O)(=O)NCC(F)(F)F)ccc1-c1ccccc1 [Compound 106, N-(2,2,2-trifluoroethyl)-2-(3-(4-(trifluoromethyl)pyrimidin-2-yl)ureido)-[1,1′-biphenyl]-4-sulfonamide]	100 to 1000 nM
O=C(Nc1cccc(C(F)(F)F)c1)Nc1cc(S(=O)(=O)Nc2ccccc2)ccc1-c1ccccn1 [Compound 109]	1000 to 10000 nM
O=C(Nc1cccc(C(F)(F)F)c1)Nc1cc(S(=O)(=O)NCC(F)(F)F)ccc1C1CCCCO1 (centres unmarked) [Compound 165, 4-(tetrahydro-2H-pyran-2-yl)-N-(2,2,2-trifluoroethyl)-3-(3-(3-(trifluoromethyl)phenyl)ureido)benzene sulfonamide]	100 to 1000 nM
O=C(Nc1cccc(C(F)(F)F)c1)Nc1cc(S(=O)(=O)NCCO)ccc1-c1ccsc1 [Compound 120, N-(2-hydroxyethyl)-4-(thiophen-3-yl)-3-(3-(3-(trifluoromethyl)phenyl)ureido)benzenesulfonamide]	100 to 1000 nM
Cc1ccc(NC(=O)Nc2cc(S(=O)(=O)Nc3ccccc3)ccc2-c2ccsc2)cc1C [Compound 17]	1000 to 10000 nM
O=C(Nc1cccc(C(F)(F)F)c1)Nc1cc(S(=O)(=O)Nc2ccccc2)ccc1-c1cccc(O)c1 [Compound 50, 3′-hydroxy-N-phenyl-2-(3-(3-(trifluoromethyl)phenyl)ureido)-[1,1′-biphenyl]-4-sulfonamide]	100 to 1000 nM
O=C(Nc1ccccn1)Nc1cc(S(=O)(=O)Nc2ccccc2)ccc1-c1ccsc1 [Compound 22]	1000 to 10000 nM
